Measured values as given in publication PMC10794144, “A novel antibiotic class targeting the lipopolysaccharide transporter” (Nature, 2024).
Converted amounts (≈) assume the structure as drawn. Like-named read-outs stand apart in the source and are kept apart here.

System: A. baumannii
Assay: MIC, broth microdilution in CAMHB supplemented with human serum, read at 100% growth inhibition
Format: cell-based, Acinetobacter baumannii
Conditions: Acinetobacter baumannii, 20% HS, read-out: MIC
Description: MIC determinations were performed using the broth microdilution method and in line with CLSI guidelines M07 and M100 (refs. [37],[38]). Bacterial inocula were prepared by diluting a 0.5 McFarland suspension in CAMHB or lysogeny broth (LB) specifically for A. baylyi isolates. […] MIC values of all of the tested antibiotics were read as the lowest compound concentration inhibiting bacterial growth by naked eye or beyond which the OD600 ceased to decrease.

CN1C(=O)[C@H](CCCCN)NC(=O)[C@H](CCCN)NCc2cccnc2Sc2cccc(-c3ccc(C(=O)O)cc3)c2CNC(=O)[C@@H]1Cc1c[nH]c2ccccc12 [zosurabalpin]
MIC (isolate 1089062): 0.125 µg/mL (≈ 0.158 µM) | MIC (isolate 1089975): 0.125 µg/mL (≈ 0.158 µM) | MIC (isolate 1093170): 0.25 µg/mL (≈ 0.316 µM) | MIC (isolate 1098735): 1 µg/mL (≈ 1.26 µM) | MIC (isolate 1104059): 1 µg/mL (≈ 1.26 µM) | MIC (isolate 1104061): 0.25 µg/mL (≈ 0.316 µM) | MIC (isolate 1104062): 0.25 µg/mL (≈ 0.316 µM) | MIC (isolate 1115481): 0.06 µg/mL (≈ 0.0759 µM) | MIC (isolate 1115495): 0.5 µg/mL (≈ 0.632 µM) | MIC (isolate 1115510): 0.5 µg/mL (≈ 0.632 µM) | MIC (isolate 1115514): 0.25 µg/mL (≈ 0.316 µM) | MIC (isolate 1126813): 0.25 µg/mL (≈ 0.316 µM) | MIC (isolate 1140100): 0.06 µg/mL (≈ 0.0759 µM) | MIC (isolate 1154091): 1 µg/mL (≈ 1.26 µM) | MIC (isolate 1161864): 0.016 µg/mL (≈ 0.0202 µM) | MIC (isolate 1171976): 0.06 µg/mL (≈ 0.0759 µM) | MIC (isolate 1172109): 0.016 µg/mL (≈ 0.0202 µM) | MIC (isolate 1172126): 0.06 µg/mL (≈ 0.0759 µM) | MIC (isolate 1630178): 0.25 µg/mL (≈ 0.316 µM) | MIC (isolate 1630190): 1 µg/mL (≈ 1.26 µM) | MIC (isolate 1630410): 0.25 µg/mL (≈ 0.316 µM) | MIC (isolate 1631625): 0.06 µg/mL (≈ 0.0759 µM) | MIC (isolate 1631735): 0.5 µg/mL (≈ 0.632 µM) | MIC (isolate 1631846): 0.125 µg/mL (≈ 0.158 µM) | MIC (isolate 1631847): 2 µg/mL (≈ 2.53 µM) | MIC (isolate 1631848): 4 µg/mL (≈ 5.06 µM) | MIC (isolate 1631849): 0.06 µg/mL (≈ 0.0759 µM) | MIC (isolate 1631949): 0.5 µg/mL (≈ 0.632 µM) | MIC (isolate 1631953): 0.5 µg/mL (≈ 0.632 µM) | MIC (isolate 1631954): 0.25 µg/mL (≈ 0.316 µM) | MIC (isolate 1631955): 0.06 µg/mL (≈ 0.0759 µM) | MIC (isolate 1632073): 0.06 µg/mL (≈ 0.0759 µM) | MIC (isolate 1632166): 0.25 µg/mL (≈ 0.316 µM) | MIC (isolate 1632273): 0.25 µg/mL (≈ 0.316 µM) | MIC (isolate 1633081): 0.25 µg/mL (≈ 0.316 µM) | MIC (isolate 1633082): 0.5 µg/mL (≈ 0.632 µM) | MIC (isolate 1633098): 0.25 µg/mL (≈ 0.316 µM) | MIC (isolate 1633115): 0.25 µg/mL (≈ 0.316 µM) | MIC (isolate 1633117): 1 µg/mL (≈ 1.26 µM) | MIC (isolate 1633121): 0.5 µg/mL (≈ 0.632 µM) | MIC (isolate 1633124): 1 µg/mL (≈ 1.26 µM) | MIC (isolate 1633269): 2 µg/mL (≈ 2.53 µM) | MIC (isolate 1633271): 1 µg/mL (≈ 1.26 µM) | MIC (isolate 1633272): 1 µg/mL (≈ 1.26 µM) | MIC (isolate 1728772): 0.25 µg/mL (≈ 0.316 µM) | MIC (isolate 1728773): 0.5 µg/mL (≈ 0.632 µM) | MIC (isolate 1728774): 0.25 µg/mL (≈ 0.316 µM) | MIC (isolate 1728884): 0.5 µg/mL (≈ 0.632 µM) | MIC (isolate 1729042): 2 µg/mL (≈ 2.53 µM) | MIC (isolate 1729043): 1 µg/mL (≈ 1.26 µM) | MIC (isolate 1729044): 1 µg/mL (≈ 1.26 µM) | MIC (isolate 1729049): 2 µg/mL (≈ 2.53 µM) | MIC (isolate 1729050): 2 µg/mL (≈ 2.53 µM)
